Entries after “also recorded” stand apart in the source; their conditions may differ.
Columns and labels:
IRAK1 = IRAK1 (Homo sapiens, UniProt P51617); settings: 100 μM; cited from earlier work
[1] = test system: MDA-MB-468 triple negative breast cancer cells; assay: MTS cytotoxicity assay in MDA-MB-468 triple negative breast cancer cells; format: cell-based; settings: 10, 50 and 100 μM for 24, 48 and 72 hours, MTS
Description: The assay was performed as follows.
Derivatives were dosed at 10, 50 and 100 μM for 24, 48 and 72 hours and cell viability measured by MTS assay (FIG. 5).

[2] = target: T1, Mitochondrial respiratory complex II (CII) (Rattus norvegicus, UniProt P21913+Q641Z9+Q6PCT8+Q920L2); settings: rat heart mitochondria, literature; cited from earlier work
T1 construct: host or cells: rat heart mitochondria

breast cancer = settings: 200-300 mg per day, cited from earlier work
TTK = target: T2, TTK (Homo sapiens, UniProt P33981); settings: 100 μM; cited from earlier work
T2 sequence (P33981 1-857): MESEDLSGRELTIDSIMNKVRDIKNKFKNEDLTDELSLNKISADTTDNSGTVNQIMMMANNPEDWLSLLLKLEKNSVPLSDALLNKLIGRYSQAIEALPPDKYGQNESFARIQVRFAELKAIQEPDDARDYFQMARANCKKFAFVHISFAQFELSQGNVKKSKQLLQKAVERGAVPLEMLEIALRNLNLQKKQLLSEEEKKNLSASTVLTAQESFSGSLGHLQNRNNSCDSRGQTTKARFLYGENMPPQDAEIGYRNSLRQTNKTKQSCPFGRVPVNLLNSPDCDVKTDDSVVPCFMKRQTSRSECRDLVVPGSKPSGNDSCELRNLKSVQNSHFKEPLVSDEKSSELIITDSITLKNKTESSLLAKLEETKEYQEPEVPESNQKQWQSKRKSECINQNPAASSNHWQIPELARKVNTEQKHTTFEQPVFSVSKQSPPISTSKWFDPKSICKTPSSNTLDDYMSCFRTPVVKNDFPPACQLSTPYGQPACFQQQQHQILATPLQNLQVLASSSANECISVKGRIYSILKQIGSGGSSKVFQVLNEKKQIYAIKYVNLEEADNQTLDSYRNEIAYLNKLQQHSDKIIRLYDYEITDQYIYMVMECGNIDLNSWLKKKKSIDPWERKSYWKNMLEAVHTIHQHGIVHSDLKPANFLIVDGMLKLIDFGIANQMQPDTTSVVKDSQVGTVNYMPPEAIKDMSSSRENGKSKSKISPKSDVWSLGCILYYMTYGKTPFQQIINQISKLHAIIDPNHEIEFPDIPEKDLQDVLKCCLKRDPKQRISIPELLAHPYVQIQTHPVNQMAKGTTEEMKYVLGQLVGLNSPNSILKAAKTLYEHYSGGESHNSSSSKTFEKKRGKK

[3] = test system: 22Rv1 prostate cancer cells; assay: MTS cytotoxicity assay in 22Rv1 prostate cancer cells; settings: for effect on cell viability of prostate cancer cells: 100 μM up to 72 hours
Method in brief: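 Cells seeded at 1×10^5 per well and dosed after 24 h at the indicated concentrations (final DMSO <1%), then incubated 48-72 hours at 37° C, 5% CO2. MTS added for 2-4 hr; absorbance at 490 nm, viability expressed as percentage of controls.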

[4] = test system: hormone-dependent mammary carcinomas; settings: 300 mg/kg, rats; cited from earlier work
[5] = test system: MCF-7 breast cancer cells; settings: cited from earlier work
[6] = test system: VEGF-induced proliferation of HUVEC cells; assay: VEGF-induced HUVEC proliferation, MTT assay; format: cell-based, human; settings: Homo sapiens, HUVEC, 48 h, 20 μM compound, VEGF 10 ng/mL, HUVEC, 48 h; relative to VEGF treated cells; mean ± SEM n = 3; read-out: % Inhibition of Proliferation
Method in brief: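 HUVECs starved 24 h in 0.1% BSA/0.1% FBS basal medium, then treated 48 h with VEGF (10 ng/mL) alone or with compounds at 20 μM (DMSO <1%). Proliferation by MTT (2 h, 37° C), formazan dissolved in acidified isopropanol, absorbance at 570 nm.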

IRAK1, sequence (P51617 whole entry): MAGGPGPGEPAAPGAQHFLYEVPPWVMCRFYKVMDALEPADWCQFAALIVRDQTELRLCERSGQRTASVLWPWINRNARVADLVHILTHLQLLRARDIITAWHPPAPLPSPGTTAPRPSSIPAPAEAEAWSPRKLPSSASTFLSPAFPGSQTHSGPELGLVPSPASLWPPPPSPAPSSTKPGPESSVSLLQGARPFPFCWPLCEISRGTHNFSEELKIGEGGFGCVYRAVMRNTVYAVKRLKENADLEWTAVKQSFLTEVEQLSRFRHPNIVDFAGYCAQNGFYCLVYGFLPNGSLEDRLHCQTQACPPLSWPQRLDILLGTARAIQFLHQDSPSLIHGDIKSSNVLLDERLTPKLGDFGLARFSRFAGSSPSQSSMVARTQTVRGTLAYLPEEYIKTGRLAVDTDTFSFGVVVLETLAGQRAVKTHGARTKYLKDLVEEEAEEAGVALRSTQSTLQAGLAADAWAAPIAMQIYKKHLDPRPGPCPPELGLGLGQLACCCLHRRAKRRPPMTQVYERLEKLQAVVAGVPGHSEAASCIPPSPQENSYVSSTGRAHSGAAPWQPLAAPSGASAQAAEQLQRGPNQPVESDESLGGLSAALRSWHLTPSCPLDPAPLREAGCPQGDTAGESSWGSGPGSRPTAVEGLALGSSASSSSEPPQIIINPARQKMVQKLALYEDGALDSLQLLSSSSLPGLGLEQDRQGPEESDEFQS
T1 sequence (Q920L2 35-656): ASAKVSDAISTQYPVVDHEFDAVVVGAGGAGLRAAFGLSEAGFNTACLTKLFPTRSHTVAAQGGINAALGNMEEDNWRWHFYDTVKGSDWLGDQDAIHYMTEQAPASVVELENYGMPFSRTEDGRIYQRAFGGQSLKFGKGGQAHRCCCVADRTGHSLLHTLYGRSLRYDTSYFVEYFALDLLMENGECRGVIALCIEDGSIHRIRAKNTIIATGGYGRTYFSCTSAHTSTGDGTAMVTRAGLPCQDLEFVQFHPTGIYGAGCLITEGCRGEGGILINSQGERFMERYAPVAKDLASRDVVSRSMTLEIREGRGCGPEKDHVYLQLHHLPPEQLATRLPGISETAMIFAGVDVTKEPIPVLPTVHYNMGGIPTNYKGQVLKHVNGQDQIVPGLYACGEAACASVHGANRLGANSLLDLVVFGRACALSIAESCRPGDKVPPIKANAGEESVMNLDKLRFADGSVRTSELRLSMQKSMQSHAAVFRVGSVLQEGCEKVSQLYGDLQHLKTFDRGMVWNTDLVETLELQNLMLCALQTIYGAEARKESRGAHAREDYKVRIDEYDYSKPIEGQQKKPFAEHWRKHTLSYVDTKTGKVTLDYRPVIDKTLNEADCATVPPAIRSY
T1 sequence (P21913 31-282): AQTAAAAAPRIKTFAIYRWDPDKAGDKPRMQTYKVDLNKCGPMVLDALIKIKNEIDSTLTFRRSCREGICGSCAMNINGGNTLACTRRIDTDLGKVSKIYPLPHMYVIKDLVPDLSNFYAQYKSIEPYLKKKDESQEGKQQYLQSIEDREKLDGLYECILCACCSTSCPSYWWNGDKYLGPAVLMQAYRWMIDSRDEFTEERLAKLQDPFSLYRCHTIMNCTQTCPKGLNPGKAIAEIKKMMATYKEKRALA
T1 sequence (Q641Z9 30-169 limits assumed): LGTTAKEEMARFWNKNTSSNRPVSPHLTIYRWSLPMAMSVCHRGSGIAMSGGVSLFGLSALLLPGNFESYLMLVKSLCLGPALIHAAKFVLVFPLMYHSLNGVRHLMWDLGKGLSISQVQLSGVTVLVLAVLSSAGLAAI
T1 sequence (Q6PCT8 57-159): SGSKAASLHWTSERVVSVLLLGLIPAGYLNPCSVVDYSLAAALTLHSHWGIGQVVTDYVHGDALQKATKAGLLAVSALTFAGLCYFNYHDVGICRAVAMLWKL

CC1=Nc2ccc(Cl)cc2S(=O)(=O)N1 [Diazoxide, 7-chloro-3-methyl-2H-1,2,4-benzothiadiazine 1,1-dioxide, reference compound]
inhibition of IRAK1 (IRAK1): 9%
effect on MDA-MB 468 TNBC cell viability [1]: no effect to reduce cell viability; also recorded: little activity to reduce TNBC cell viability
effect on MDA-MB 468 TNBC cell viability ([1]; listed as 9): no effect on cell viability
IC50 [2]: 32 µM
response rate (breast cancer; nine patients): 33%
duration of stable disease (breast cancer): 4-8 months
inhibition of TTK (TTK): 15%
effect on cell viability of prostate cancer cells [3]: no effect to reduce cell viability
effect on cell viability of prostate cancer cells ([3]; listed as 9): no effect on cell viability
cytotoxicity at 100 µM ([3]; Homo sapiens, 22Rv1, 48 h, read-out: reduction of 22Rv1 cell viability): 12%
adverse effect [4]: mild reversible diabetes
inhibition of tumor growth [4]: 90%
IC50 [5]: 130 µM
inhibition at 20 µM [6]: 15 ± 20%

— US20230219912A1, “HALOGENATED BENZOTHIADIAZINES FOR THE TREATMENT OF CANCER” (BOARD OF REGENTS OF THE UNIVERSITY OF NEBRASKA, priority 2020, published 2023)
